US10265287B2, “Methods of reducing triglycerides and LDL-C” (Amarin Pharmaceuticals Ireland Limited, priority 2009, dated 2019)

Experiment: Lipid peroxide (LOOH) formation in model membranes, CHOD-iodide colorimetric assay
Type: biochemical
Settings: cholesterol-enriched membranes
Description: An experiment was conducted to test EPA, DHA, EPA+DHA with and without with atorvastatin in model membranes enriched with PUFAs and cholesterol at levels that reproduce disease or high CV-risk conditions (i.e. hypercholesterimia). […] EPA and DHA were tested individually at a fixed concentration of 10.0 uM or in combination at 5.65 μM and 4.35 μM (EPA and DHA, respectively), which is a mole ratio of 1.3:1. Separate and combined effects of these agents on lipid peroxide (LOOH) formation were examined at cholesterol-to-phospholipid (C/P) mole ratios of 0.5:1, 1.0:1 and 1.5:1. Levels of lipid hydroperoxides were also measured for EPA, DPH and EPA/DPH in cholesterol-enriched membrane prepared in the absence and presence of atorvastatin. […] To ensure spectrophotometric readings within the optimum absorbance range, sample volumes taken for measurement of lipid peroxide formation were adjusted for length of peroxidation and range between 100 and 10 μl. […] Absorbances were measured against a CHOD blank at 365 nm using a Beckman DU-640 spectrophotometer. The CHOD colorimetric assay is based on the oxidation of iodide (I^-) by lipid hydroperoxides (LOOH) and proceeds according to the following reaction scheme: […]3^- The quantity of triiodide anion (I3^-) liberated in this reaction is directly proportional to the amount of lipid hydroperoxides present in the membrane sample. […]

CCC=CCC=CCC=CCC=CCC=CCCCC(=O)O [EPA, eicosa-5,8,11,14,17-pentaenoic acid]
antioxidant benefit compared with DHA (EPA and DHA each tested at 10.0 uM): superior to that observed with DHA | antioxidant benefit (lipid peroxide (LOOH) formation) (autoxidation at 37° C., EPA tested at 10.0 uM): potent antioxidant benefit
